From patent US20130084614A1, “METHODS OF REMOVING INHIBITORS FROM CELLULOSIC BIOMASS AND PRODUCING ALCOHOLS” (3M INNOVATIVE PROPERTIES COMPANY, priority 2010, published 2013)
Where a name gives a salt, the structure may show the parent alone. Read-outs that look alike come from different tables or passages of the source.

What was measured:
[1] = Confirmatory laboratory extraction of a synthetic inhibitor/sugar mixture; format: physicochemical; settings: 5 mL synthetic solution + 5 mL solvent, 20° C., HPLC
Source text: In order to define a standardized method of comparing solvents, a new parameter called extraction yield was created. Extraction yield is a ratio of the concentration of a species in the extract to the concentration of that species in the feed. […].
Another parameter, the extraction score, was defined in order to rank overall inhibitor removal performance. Each extraction yield of inhibitors and sugars was multiplied by a weighting factor determined by the importance of removing or retaining the particular compound in the feed. The resulting numbers were then summed to calculate the extraction score.
The confirmatory extraction of a synthetic inhibitor/sugar mixture was next carried out using inhibitors and sugars to mimic the conditions in acid-pretreated cellulosic fermentation feed. The synthetic solutions contained 1 g/L each of formic acid, lactic acid, acetic acid, furfural, HMF and vanillin as well as 20 g/L of glucose and 60 g/L of xylose. Five mL of this synthetic solution and 5 mL of solvent were added to a test tube and the test tubes were shaken in a Lab Line Instruments (Mumbai, India) “MULTI-WRIST SHAKER” at a setting of 8 for 10 min at 20° C. The mixture was allowed to settle overnight to phase separate completely. Inhibitor concentrations in each phase were analyzed by an Agilent Technologies (Santa Clara, Calif.) 1100 HPLC system consisting of a quaternary gradient pump, autosampler, heated column compartment, and diode array absorbance detector. Gradient elution was done on a YMC Company Ltd. (Kyoto, Japan) “YMC Carotenoid S-5” (C30) column with 0.05% phosphoric acid and a solvent ramp of 0% acetonitrile/100% water to 90% acetonitrile/10% water and back over 32.5 minutes. Based on the measured concentration of each inhibitor and sugar, extraction yields and scores were calculated and shown in Table 1 and reported as “laboratory extraction yield” and “laboratory extraction score”; (see footnotes 2 and 3).

[2] = test system: E. Coli, FBR-5 strain; experiment: Fermentation of extracted C5 fraction, sugar and ethanol by HPLC; format: cell-based, Escherichia coli
[3] = cited from earlier work
[4] = CE2 liquid/liquid solvent extraction (not membrane), 0 hrs
[5] = CE2 liquid/liquid solvent extraction (not membrane), 24 hrs
[6] = EX4 multilayer cross-flow MSE, 0 hrs
[7] = EX4 multilayer cross-flow MSE, 24 hrs
[8] = EX4 multilayer cross-flow MSE, 48 hrs
[9] = IUPAC-NIST Solubility Data Series / Yaws' Handbook

| Compound | laboratory extraction yield, Acetic acid [1] | laboratory extraction yield, Formic acid [1] | laboratory extraction yield, Furfural [1] | laboratory extraction yield, HMF [1] | laboratory extraction yield, Lactic acid [1] | laboratory extraction yield, Vanillin [1] | Water Solubility ([3]; literature values) [g/100 mL] | other results |
| --- | --- | --- | --- | --- | --- | --- | --- | --- |
| CCCCCCCCCCO [1-decanol] | 0.281^3 | 0.180^3 | 0.666^3 | 0.280^3 | 0.120^3 | 0.911^3 | 0.10 | Ethanol [2, 4]: 0 g/L; Sugar [2, 4]: 48 g/L; Ethanol [2, 5]: 23 g/L; Sugar [2, 5]: 1 g/L; Ethanol ([2]; EX3 single layer MSE, 0 hrs): 0 g/L; Sugar ([2]; EX3 single layer MSE, 0 hrs): 48 g/L; Ethanol ([2]; EX3 single layer MSE, 24 hrs): 20 g/L; Sugar ([2]; EX3 single layer MSE, 24 hrs): 3 g/L; Ethanol [2, 6]: 0 g/L; Sugar [2, 6]: 50 g/L; Ethanol [2, 7]: 12 g/L; Sugar [2, 7]: 30 g/L; Ethanol [2, 8]: 18 g/L; Sugar [2, 8]: 12 g/L |
| CCCCCCCCCCCCO [1-dodecanol] | 0.000^3 | 0.020^3 | 0.593^3 | 0.200^3 | 0.050^3 | 0.903^3 |  |  |
| CCCCCCCCO [1-octanol] | 0.361^3 | 0.239^3 | 0.728^3 | 0.360^3 | 0.180^3 | 0.931^3 | 0.11 |  |
| CC(C)CC(O)CC(C)C [2,6-dimethyl-4-heptanol] | 0.301^3 | 0.180^3 | 0.593^3 | 0.220^3 | 0.070^3 | 0.851^3 | 0.045 |  |
| CCCCC(CC)CO (stereo not drawn) [2-ethyl-1-hexanol] | 0.352^3 | 0.213^3 | 0.669^3 | 0.337^3 | 0.112^3 | 0.918^3 |  |  |
| CCCCC(C)O (stereo not drawn) [2-hexanol] |  |  |  |  |  |  | 0.35 |  |
| CCCCCCCC(C)=O [2-nonanone] |  |  |  |  |  |  | 0.050 |  |
| CCCCCCC(C)O (stereo not drawn) [2-octanol] | 0.397^3 | 0.280^3 | 0.687^3 | 0.394^3 | 0.155^3 | 0.937^3 | 0.11 |  |
| CCCCCCC(=O)CC [3-nonanone] | 0.321^3 | 0.130^3 | 0.895^3 | 0.310^3 | 0.030^3 | 0.931^3 | 0.010 |  |
| CC(=O)c1ccccc1 [Acetophenone] | 0.351^3 | 0.234^3 | 0.917^3 | 0.647^3 | 0.137^3 | 0.700^3 | 0.10 |  |
| CCCCNCCCC [Dibutylamine] |  |  |  |  |  |  | 0.35 |  |
| CCCCCCCC/C=C\CCCCCCCCO [Oleyl alcohol] |  |  |  |  |  |  | 0.018 |  |
| CCCCCCCCN(CCCCCCCC)CCCCCCCC [Trioctylamine] |  |  |  |  |  |  | 0.10 |  |
| O=Cc1ccccc1 [benzaldehyde] | 0.301^3 | 0.200^3 | 1.114^3 | 0.841^3 | 0.070^3 | 1.392^3 | 0.01 |  |
| C1CCCCC1 [cyclohexane] |  |  |  |  |  |  | 0.0017 |  |
| C1CCC2CCCCC2C1 (stereo not drawn) [decahydronapthalene] |  |  |  |  |  |  | 0.002 |  |
| CCCCOC(=O)/C=C\C(=O)OCCCC [dibutyl maleate] |  |  |  |  |  |  |  | Ethanol [2, 4]: 0 g/L; Sugar [2, 4]: 45 g/L; Ethanol [2, 5]: 20 g/L; Sugar [2, 5]: 1 g/L; Ethanol ([2]; EX3 single layer MSE, 0 hrs): 0 g/L; Sugar ([2]; EX3 single layer MSE, 0 hrs): 51 g/L; Ethanol ([2]; EX3 single layer MSE, 24 hrs): 19 g/L; Sugar ([2]; EX3 single layer MSE, 24 hrs): 2 g/L |
| CCOCC [diethyl ether, reference compound] |  |  |  |  |  |  |  | Water Solubility [3, 9]: 6.9 grams per 100 mL |
| CCOC(C)=O [ethyl acetate, reference compound] |  |  |  |  |  |  |  | Water Solubility [3, 9]: 8.3 grams per 100 mL |
| CCCC(=O)OCC [ethyl butyrate] | 0.221^3 | 0.160^3 | 0.937^3 | 0.360^3 | 0.050^3 | 1.001^3 | 0.50 |  |
| CC(C)OC(C)C [isopropyl ether] |  |  |  |  |  |  | 0.20 |  |
| CCCCCCCCCC [n-decane] |  |  |  |  |  |  | 0.10 |  |
| CCCCCCCCCCCC [n-dodecane] |  |  |  |  |  |  | 0.10 |  |
| CCCCCC [n-hexane] |  |  |  |  |  |  | 0.10 |  |
| CCCCCCCCCCCCCC [n-tetradecane] |  |  |  |  |  |  | 0.10 |  |
| CCCN(CCC)CCC [tripropylamine] |  |  |  |  |  |  | 0.10 |  |
